Activity calls are given as the source filed them. No cut-off for these calls is given here.
Tested on: Rattus norvegicus
Assay: Cognitive enhancing effect in Hannover Wistar rat assessed as increase in novel object recognition index at 1 to 10 mg/kg, po administered 30 mins prior to recognition trail by novel object recognition test
Assay type: functional, organism-based
Details: dose 1-10 mg/kg

Compound: Cc1ccc(CN2CCN(C(=O)C(=O)Nc3ccc4c(ccn4C)c3)CC2)cc1
- Activity: inactive

From ChEMBL document CHEMBL4825686, “HTS-based discovery and optimization of novel positive allosteric modulators of the α7 nicotinic acetylcholine receptor” (Eur J Med Chem, 2021)
